This is an account of results in patent publication US5391817A, “Biaryl phospholipase A2 inhibitors” (Bristol-Myers Squibb, priority 1993, dated 1995).

Each structure is given as a SMILES string.

One experiment concerns the target T1, PLA2 (Homo sapiens, UniProt P14555).
T1 construct: The enzyme is isolated from human platelets; from tissue; host or cells: human platelets
T1 sequence (P14555 21-144): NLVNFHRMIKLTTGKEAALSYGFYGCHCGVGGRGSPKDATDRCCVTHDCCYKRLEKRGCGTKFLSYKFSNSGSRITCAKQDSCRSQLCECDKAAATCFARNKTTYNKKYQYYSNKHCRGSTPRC
The experiment is described as follows: PLA2 Inhibition Assay (14C-oleate labeled E. coli membrane substrate). It counts as biochemical. The conditions noted are these: 100 μM (sic, Table 6); PLA2 from human platelets; pH 7, 37° C. The protocol: The method used is similar to that reported by Franson, et al. [Jesse, R. L. and Franson R. C., Biochim. Biophys. Acta 575: 467-470 (1979); Franson, R. C., Patriarca, P., and Elsback, P., J. Lipid Res. 15: 380-388 (1974)]. The enzyme is isolated from human platelets. The substrate used consists of ^14 C-oleate labeled Escherichia coli membranes. E. coli cells are grown in the presence of ^14 C-oleic acid and then autoclaved to prepare the membranes.
Various concentrations of test compounds are preincubated with PLA2 (3.6 mg/mL in a buffer consisting of 25 mM HEPES (pH 7)), 150 mM NaCl, 5.0 mM CaCl2, and 10% DMSO (v/v, test compound solvent) at 37° C. for 7 minutes. The E. coli substrate is then added (0.1 mM phospholipid, 0,005 mCi ^14 C) and the reaction is then incubated at 37° C. for 30 minutes. The reaction is then terminated by the addition of 1.9 mL tetrahydrofuran (THF), and the entire solution is applied to a solid-phase extraction column (aminopropyl resin, Analytichem). The column is rinsed with an additional 1 mL of THF. The free fatty acid product of the reaction is then eluted from the column with 1 mL 2% acetic acid in THF and collected in a scintillation vial. The amount of free fatty acid product is determined by liquid scintillation counting. The amount of inhibition produced by the test compound is calculated by comparing the counts obtained in the presence of the compound to those obtained in its absence (solvent only). Background counts were determined by performing incubations in the absence of enzyme.
Percent inhibition is determined by the equation: [formula]
Take `CC1(C)CCC(C)(C)c2cc(COc3ccccc3-c3ccccc3C(=O)O)ccc21` [Structure 52c, 2-[5,6,7,8-tetrahydro-5,5,8,8-tetramethyl-2-naphthalenyl]methoxy-[1,1'-biphenyl]-2'-carboxylic acid]: the “% Inhibition of PLA2 at 100 .infin.M” value came to 72%.

Still in this experiment, the particulars now being: 100 μM; PLA2 from human platelets; pH 7, 37° C.
For orientation: inhibition means the percentage by which the read-out fell short of the control. For `CCCCCCCCCCOc1ccc(COc2cccc(C(=O)O)c2-c2cccc(C(=O)O)c2)cc1OCCCCCCCCCC` [Structure 14a, 2-[(3,4-bisdecyloxy)phenyl]methoxy-[1,1'-biphenyl]-6,3'-dicarboxylic acid], the inhibition at 100 µM worked out at 99%.

Consider `CCCCCOc1ccc(COc2cccc(C(=O)O)c2-c2cccc(C(F)(F)F)c2)cc1OCCCCC` [Structure 14j, 2-[(3,4-bispentyloxy)phenyl]methoxy-[1,1'-biphenyl]-3'-trifluoromethyl-6-carboxylic acid], for which 100 µM produced 98% inhibition.

The molecule `CC1(C)CCC(C)(C)c2cc3cc(-c4cccc(CC(=O)O)c4-c4cccc(C(=O)O)c4)ccc3cc21` [Structure 28c, 3'-carboxy-2-[(1,2,3,4-tetrahydro-1,1,4,4-tetramethyl)-6-anthracenyl]-[1,1'-biphenyl]-6-acetic acid] gave an inhibition at 100 µM of 93%.

As for `CC1(C)CCC(C)(C)c2cc(COc3cccc(C(=O)O)c3-c3cccc(CC(=O)O)c3)ccc21` [Structure 14q, 6-carboxy-2-[5,6,7,8-tetrahydro-5,5,8,8-tetramethyl-2-naphthalenyl]methoxy-[1,1'-biphenyl]-3'-acetic acid], testing at 100 µM gave an inhibition of 72%.

In turn, `CCCCCOc1ccc(COc2cccc(CCC(=O)O)c2-c2cccc(C(=O)O)c2)cc1OCCCCC` [Structure 37c, 2-[3,4-bis (pentyloxy)phenyl]methoxy-3'-carboxy-[1,1'-biphenyl]-6-propanoic acid] returned an inhibition at 100 µM of 59%.

The molecule `COc1cc(COc2cccc(C(=O)O)c2-c2ccccc2)ccc1C12CC3CC(CC(C3)C1)C2` [Structure 14g, 2-[4-(1-adamantyl)-3-methoxyphenyl]methoxy-[1,1'-biphenyl]-6-carboxylicacid] registered an inhibition at 100 µM of 44%.

On to `CCOC(=O)c1cccc(-c2c(OCc3ccc4c(c3)C(C)(C)CCC4(C)C)cccc2C(=O)O)c1` [Structure 14l, 2-(5,6,7,8-tetrahydro-5,5,8,8-tetramethyl-2-naphthalenyl)methoxy-[1,1'-biphenyl]-6,3'-dicarboxylic acid, 3'-ethyl ester], for which the inhibition at 100 µM was determined as 54%.

For `CCCCCOc1ccc(COc2cccc(C(=O)O)c2-c2ccccc2)cc1OCCCCC` [Structure 14i, 2-[(3,4-bispentyloxy)phenyl]methoxy-[1,1'-biphenyl]-6-carboxylic acid], 100 µM produced 99% inhibition.

`COc1cc(COc2cccc(CC(=O)O)c2-c2cccc(C(=O)O)c2)ccc1C12CC3CC(CC(C3)C1)C2` [Structure 30d, 3'-carboxy-2-[4-(1-adamantyl)-3-methoxyphenyl]methoxy-[1,1'-biphenyl]-6-acetic acid] yielded an inhibition at 100 µM of 97%.

Consider `CC1(C)CCC(C)(C)c2cc(COc3cccc(/C=C/C(=O)O)c3-c3cccc(C(=O)O)c3)ccc21` [Structure 39d, 3'-carboxy-2-[5,6,7,8-tetrahydo-5,5,8,8-tetramethyl-2-naphthalenyl]methoxy-[1,1'-biphenyl]-6-[(E)-3-propenoic acid]], for which the inhibition at 100 µM is 72%.

In turn, `CCCCCOc1ccc(COc2cccc(CC(=O)O)c2-c2cccc(C(=O)O)c2)cc1OCCCCC` [Structure 30a, 2-[(3,4-bispentyloxy)phenyl]methoxy-3'-carboxy-[1,1'-biphenyl]-6-acetic acid] returned an inhibition at 100 µM of 96%.

In the case of `O=C(O)Cc1cccc(/C=C/c2ccccc2)c1-c1cccc(C(=O)O)c1` [Structure 28a, (E) 2-styryl-6-carboxymethyl-1,1'-biphenyl-3'-carboxylic acid], testing at 100 µM gave an inhibition of 28%.

As to `O=C(O)c1cccc(-c2c(OCc3ccc(OC4CCCC4)c(OC4CCCC4)c3)cccc2C(=O)O)c1` [Structure 14d, 2-[(3,4-biscyclopentyloxy)phenyl]methoxy-[1,1 'biphenyl]-6,3'-dicarboxylic acid], the inhibition at 100 µM was found to be 73%.

Molecule `CC(C)=CCOc1ccc(COc2cccc(/C=C/C(=O)O)c2-c2cccc(C(=O)O)c2)cc1OCC=C(C)C` [Structure 39a, 2-[3,4-his (3-methyl-2-butenyloxy)phenyl]methoxy-3'-carboxy-[1,1'-biphenyl]-6-[(E)-3-propenoic acid]] displayed an inhibition at 100 µM of 73%.

For `CC1(C)CCC(C)(C)c2cc(COc3cccc(CCC(=O)O)c3-c3cccc(C(=O)O)c3)ccc21` [Structure 37d, 3'-carboxy-2-[5,6,7,8-tetrahydro-5,5,8,8-tetramethyl-2-naphthalenyl]methoxy-[1,1'-biphenyl]-6-propanoic acid], the inhibition at 100 µM came to 54%.

As to `C/C(=C\c1cccc(C(=O)O)c1-c1cccc(C(=O)O)c1)c1ccc2c(c1)C(C)(C)CCC2(C)C` [Structure 11, (E)-[2-(5,6,7,8-tetrahydro-5,5,8,8-tetramethyl-2-naphthalenyl)-1-propenyl]-[1,1'-biphenyl]-6,3'-dicarboxylic acid], testing at 100 µM gave an inhibition of 80%.

Take `CC(C)(C)c1ccc(-c2c(OCc3ccc4c(c3)C(C)(C)CCC4(C)C)cccc2C(=O)O)cc1` [Structure 14o, 2-(5,6,7,8-tetrahydro-5,5,8,8-tetramethyl-2-naphthalenyl)methoxy-[1,1'-biphenyl]-4'-(1,1-dimethylethyl)-6-carboxylic acid]: the inhibition at 100 µM came out at 99%.

In turn, `CCCCCCCCCCOc1ccc(COc2cccc(C(=O)O)c2-c2ccccc2)cc1` [Structure 14k, 2-[(4-decyloxy)phenyl]methoxy-[1,1'-biphenyl]-6-carboxylic acid] had an inhibition at 100 µM of 99%.

Consider `CCCCCOc1ccc(COc2cccc(C(=O)O)c2-c2ccccc2)cc1O` [Structure 14e, 2-[(3-hydroxy-4-pentyloxy)phenyl]methoxy-[1,1 '-biphenyl]-6-carboxylic acid], for which the inhibition at 100 µM was found to be 34%.

Molecule `CC1(C)CCC(C)(C)c2cc(COc3cccc(CC(=O)O)c3-c3ccccc3)ccc21` [Structure 30e, 2-(5,6,7,8-tetrahydro-5,5,8,8-tetramethyl-2-naphthalenyl)methoxy-[1,1'-biphenyl]-6-acetic acid] had an inhibition at 100 µM of 59%.

In the case of `CCCCCOc1ccc(COc2cccc(C(=O)O)c2-c2ccccc2)cc1OC(C)=O` [Structure 14f, 2-[(3-acetoxy-4-pentyloxy)phenyl]methoxy-[1,1'-biphenyl]-6-carboxylic acid], 100 µM produced 30% inhibition.

`CC(C)=CCOc1ccc(COc2cccc(C(=O)O)c2-c2cccc(C(=O)O)c2)cc1OCC=C(C)C` [Structure 14b, 2-[3,4-bis(3-methyl-2-butenyloxy)phenyl]methoxy-[1,1'-biphenyl]-6,3'-dicarboxylic acid]: 100 µM produced 20% inhibition.

The molecule `CC1(C)CCC(C)(C)c2cc(COc3cccc(CC(=O)O)c3-c3cccc(C(=O)O)c3)ccc21` [Structure 30f, 3'-carboxy-2-(5,6,7,8-tetrahydro-5,5,8,8-tetramethyl-2-naphthalenyl)methoxy-[1,1'-biphenyl]-6-acetic acid] showed an inhibition at 100 µM of 80%.

Molecule `CC1(C)CCC(C)(C)c2cc(COc3cccc(C(=O)O)c3-c3ccc(CCO)cc3)ccc21` [Structure 14p, 2-(5,6,7,8-tetrahydro-5,5,8,8-tetramethyl-2-naphthalenyl)methoxy-4'-(2-hydroxy-1-ethyl)-[1,1'-biphenyl]-6-carboxylic acid] registered an inhibition at 100 µM of 88%.

Take `CC1(C)CCC(C)(C)c2cc(COc3cccc(C(=O)O)c3-c3cccc(C(=O)O)c3)ccc21` [Structure 14m, 2-(5,6,7,8-tetrahydro-5,5,8,8-tetramethyl-2-naphthalenyl)methoxy-[1,1'-biphenyl]-6,3'-dicarboxylic acid]: the inhibition at 100 µM came to 54%.

On to `CCCCCOc1ccc(COc2cccc(C(=O)O)c2-c2cccc(C(=O)O)c2)cc1OCCCCC` [Structure 14c, 2-[(3,4-bispentyloxy)phenyl]methoxy-[1,1'-biphenyl]-6,3'-dicarboxylic acid], for which the inhibition at 100 µM was found to be 53%.
